This is an account of results in patent US7803825B2, “Aminoalkylazole derivatives as histamine-3 antagonists” (Wyeth LLC, priority 2007, dated 2010).

One may read the Ki as the equilibrium dissociation constant of an inhibitor or competing ligand from its target. A lower Ki goes with a stronger hold on the target.

The structures appear in SMILES notation. Structures can show the parent of a compound that is named as a salt.

T1 sequence (Q9Y5N1 whole entry): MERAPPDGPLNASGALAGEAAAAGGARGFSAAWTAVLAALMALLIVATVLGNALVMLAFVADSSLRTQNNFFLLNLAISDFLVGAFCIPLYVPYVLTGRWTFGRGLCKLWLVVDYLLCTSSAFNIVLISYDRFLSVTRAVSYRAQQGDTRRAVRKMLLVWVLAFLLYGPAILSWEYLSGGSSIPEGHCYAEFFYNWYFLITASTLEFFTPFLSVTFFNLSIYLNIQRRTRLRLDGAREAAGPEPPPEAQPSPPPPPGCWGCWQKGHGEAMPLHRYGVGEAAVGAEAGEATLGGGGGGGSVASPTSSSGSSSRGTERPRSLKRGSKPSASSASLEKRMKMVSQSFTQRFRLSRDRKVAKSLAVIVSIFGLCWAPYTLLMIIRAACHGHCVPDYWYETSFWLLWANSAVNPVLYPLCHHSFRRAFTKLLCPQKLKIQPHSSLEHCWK

The experiment has as its target T1, histamine-3 (H3) receptor (Homo sapiens, UniProt Q9Y5N1).
T1 construct: expressed in transfected cells; host or cells: HEK293T
The experiment can be described thus: Methyl Histamine Binding in Human Histamine-3 Receptor Cell Line. As to conditions: membranes of stably transfected HEK293T cells, radioligand 1 nM, Ki from IC50 by Cheng-Prusoff. Here is the method:
Evaluation of Methyl Histamine Binding in Human Histamine-3 Receptor Cell Line
The affinity of test compounds for the histamine-3 (H3) receptor is evaluated in the following manner. Stably transfected HEK293T cells are grown in DMEM containing 10% heat inactivated FBS and G-418 (500 ug/ml). Cells are scraped from the plate, transferred to centrifuge tubes, washed one time in PBS by centrifugation in a Sorvall RT7 Plus centrifuge (2000 rpm 10 minutes, 4° C.). The resulting pellets are stored at 80° C. until ready for use. Cells are re-suspended in buffer (50 mM Tris pH=7.5) and placed in a Dounce homogenizer, douncing ten times to homogenize cells. The homogenate is spun down by centrifugation (Sorvall RT7 Plus, 1800 rpm 10 minutes, 4° C.). The supernatant is placed in a Corex tube and spun down by centrifugation (Sorvall RC 5c Plus, 17,000 rpm 20 minutes, 4° C.). The pellet is resuspended in buffer (50 mM Tris, pH 7.5). Protein concentration (ug/ul) is determined using the Micro-BCA Protein Determination. The binding assay is set up in a 96 well microtiter plate in a total volume of 250 uL. Non-specific binding is determined in the presence of 10 uM clobenpropit. The final radioligand concentration is 1 nM. The test compound is serially diluted using the Beckman Biomek2000 to a final approximate range of 100 uM to 100 pM. Membranes are suspended in buffer, homogenized in 2 bursts of ten seconds using a Vitris mechanical homogenizer set at power setting 5. Ten μg of membranes are added to each well. Following a one hour incubation at 30° C., the reaction is terminated by the addition of ice cold buffer and rapid filtration with a Packard Filtermate Harvester through a GF/B filter pre-soaked with 1% PEI for one hour. The plate is dried for one hour at 37° C. and 60 μL Microscint Scintillant is added to each well. The CPM per well is measured on a Packard Top Count NXT. Ki values are determined in nM. The Ki is calculated from the IC50 (i.e. the concentration of competing ligand which displaces 50% of the specific binding of the radioligand). CPM values are expressed as % specific binding and plotted vs compound concentration. A curve is fitted using a four-parameter logistic fit and the IC50 value is determined. The Ki is calculated from this using the Cheng-Prusoff equation: […]=IC50/1+(L/Kd) where L=concentration of free radioligand used in the assay, and Kd is the dissociation constant of the radioligand for the receptor. L is determined for each experiment by counting an aliquot of the diluted radioligand (corresponding to that added to each well) and the Kd has previously been determined under identical conditions for this cell line/radioligand.
In turn, `C[C@@H]1CCCN1Cc1coc(-c2ccc(Cn3c(-c4ccccc4)nc4ccccc43)cc2)n1` [Example 119, 1-[4-(4-{[(2R)-2-methylpyrrolidin-1-yl]methyl}-1,3-oxazol-2-yl)benzyl]-2-phenyl-1H-benzimidazole] returned a Ki of 10.1 to 25 nM.
Regarding `FC(F)(F)c1nc2ccccc2n1Cc1ccc(-c2nc(CN3CCCCCC3)co2)cc1` [Example 120, 1-{4-[4-(azepan-1-ylmethyl)-1,3-oxazol-2-yl]benzyl}-2-(trifluoromethyl)-1H-benzimidazole], the inhibition constant (Ki) was in the range of 10.1 to 25 nM.
The molecule `c1ccc(-c2nc3ccccc3n2Cc2ccc(-c3nc(CN4CCCCCC4)co3)cc2)cc1` [Example 121, 1-{4-[4-(azepan-1-ylmethyl)-1,3-oxazol-2-yl]benzyl}-2-phenyl-1H-benzimidazole] showed a Ki of 25.1 to 50 nM.
In turn, `FC(F)(F)c1nc2ccccc2n1Cc1ccc(-c2nc(CN3CCCCC3)co2)cc1` [Example 122, 1-{4-[4-(piperidin-1-ylmethyl)-1,3-oxazol-2-yl]benzyl}-2-(trifluoromethyl)-1H-benzimidazole] came in with a Ki of 10.1 to 25 nM.
`c1ccc(-c2nc3ccccc3n2Cc2ccc(-c3nc(CN4CCCCC4)co3)cc2)cc1` [Example 123, 2-phenyl-1-{4-[4-(piperidin-1-ylmethyl)-1,3-oxazol-2-yl]benzyl}-1H-benzimidazole] came in with a Ki of at most 10 nM.
The same measure for `Cn1c(CN2CCCC2)cnc1-c1ccc(Cn2cnc3ccccc32)cc1` [Example 139, 1-[4-(1-Methyl-5-pyrrolidin-1-ylmethyl-1H-imidazol-2-yl)-benzyl]-1H-benzoimidazole fumarate salt]: 50.1 to 100 nM; for `C[C@H]1CCCN1Cc1cnc(-c2ccc(Cn3cnc4ccccc43)cc2)n1C` [Example 140, (5)-1-(4-(1-methyl-5-((2-methylpyrrolidin-1-yl)methyl)-1H-imidazol-2-yl)benzyl)-1H-benzo[d]imidazole fumarate salt]: at most 10 nM.
In turn, `Cn1c(CN2CCCC2)cnc1-c1ccccc1` [Example 143, 1-Methyl-2-phenyl-5-pyrrolidin-1-ylmethyl-1H-imidazole fumarate salt] had a Ki above 100 nM.
For the molecule `Cn1c(CN2CCCC2)cnc1-c1ccc(C#N)cc1` [Example 144, 4-(1-Methyl-5-pyrrolidin-1-ylmethyl-1H-imidazol-2-yl)-benzonitrile fumarate salt], the Ki was above 100 nM.
The molecule `Cn1c(CN2CCCC2)cnc1-c1ccc(F)cc1` [Example 145, 2-(4-Fluoro-phenyl)-1-methyl-5-pyrrolidin-1-ylmethyl-1H-imidazole fumarate salt] registered a Ki above 100 nM.
For the molecule `Cn1c(CN2CCCC2)cnc1-c1ccc(-c2ccccc2)cc1` [Example 146, 2-Biphenyl-4-yl-1-methyl-5-pyrrolidin-1-ylmethyl-1H-imidazole fumarate salt], the inhibition constant (Ki) is above 100 nM.
Take `Cn1c(CN2CCCC2)cnc1-c1ccc(-n2cnc3ccccc32)cc1` [Example 151, 1-[4-(1-Methyl-5-pyrrolidin-1-ylmethyl-1H-imidazol-2-yl)-phenyl]-1H-benzoimidazole fumarate salt]: the Ki is at most 10 nM.
